From EP4596574A1, “GLP-1/GCG/GIP TRIPLE-RECEPTOR AGONIST AND USE THEREOF” (Sunshine Lake Pharma Co., Ltd., priority 2022, dated 2024)
Starred links: 1 amine or outer side, 2 acyl side, 3 side chain; linkers in the order of their positions; H or OH if unused. Non-standard residues stand in square brackets, D forms with d. Residues, ends and D or L forms follow the SMILES beside them. Groups on a side chain read outwards from the residue. *: point of attachment. C18 diacid = O=C(O)CCCCCCCCCCCCCCCCC(=O)*; αMePhe(2-F) = C[C@](N)(Cc1ccccc1F)C(=O)O; γGlu = O=C(O)[C@H](CCC(=O)[*:2])N[*:1]; AEEA = NCCOCCOCC(=O)O; Aib = CC(C)(N)C(=O)O

Assays:
Type in all cases: cell-based
[1] = target: T1, GIPR (Homo sapiens, UniProt P48546); assay: In vitro cell activity, cAMP production in HEK293 cells expressing GIPR; conditions: HEK293-GIPR cells, cAMP; read-out: GIPR (EC50)
T1 construct: expressed in transfected cells; host or cells: HEK293 (HEK293-GIPR)
T1 sequence (P48546 22-466): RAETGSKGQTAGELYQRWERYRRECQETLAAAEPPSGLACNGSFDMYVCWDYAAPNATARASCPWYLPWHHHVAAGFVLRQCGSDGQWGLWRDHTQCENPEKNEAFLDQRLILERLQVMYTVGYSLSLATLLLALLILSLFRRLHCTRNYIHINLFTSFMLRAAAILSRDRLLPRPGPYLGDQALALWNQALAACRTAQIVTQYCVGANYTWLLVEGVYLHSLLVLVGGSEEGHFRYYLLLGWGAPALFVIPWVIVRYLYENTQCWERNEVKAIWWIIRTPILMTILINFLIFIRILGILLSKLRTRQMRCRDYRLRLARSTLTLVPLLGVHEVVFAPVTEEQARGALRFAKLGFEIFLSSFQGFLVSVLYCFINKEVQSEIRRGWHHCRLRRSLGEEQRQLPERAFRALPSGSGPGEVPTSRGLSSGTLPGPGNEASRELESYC
Summary of the method: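 cAMP accumulation is quantified by homogeneous TR-FRET (cAMP-d2 plus anti-cAMP cryptate) in GIPR-expressing HEK293 cells seeded from a 4×10^5 cells/mL suspension and treated with compound. The signal ratio is plotted against concentration and fitted to a four-parameter curve to give EC50.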

[2] = target: T2, GCGR (Homo sapiens, UniProt P47871); assay: In vitro cell activity, cAMP production in HEK293 cells expressing GCGR; conditions: HEK293-GCGR cells, cAMP; read-out: GCGR (EC50)
T2 construct: expressed in transfected cells; host or cells: HEK293 (HEK293-GCGR)
T2 sequence (P47871 26-477, species assumed): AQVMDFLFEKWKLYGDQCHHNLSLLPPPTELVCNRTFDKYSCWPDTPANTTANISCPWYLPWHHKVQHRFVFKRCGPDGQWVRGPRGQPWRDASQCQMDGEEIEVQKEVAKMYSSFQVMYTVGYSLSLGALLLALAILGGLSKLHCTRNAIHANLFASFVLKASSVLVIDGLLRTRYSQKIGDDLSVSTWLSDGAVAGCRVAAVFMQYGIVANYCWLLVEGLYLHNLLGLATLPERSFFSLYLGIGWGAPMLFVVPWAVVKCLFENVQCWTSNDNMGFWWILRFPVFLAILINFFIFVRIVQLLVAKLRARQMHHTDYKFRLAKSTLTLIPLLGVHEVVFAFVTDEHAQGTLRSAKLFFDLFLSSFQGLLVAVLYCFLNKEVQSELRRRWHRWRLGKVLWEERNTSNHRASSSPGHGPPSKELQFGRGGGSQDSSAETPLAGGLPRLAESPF
Summary of the method: (§1)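 Assay format: cells at 4×10^5 cells/mL, cAMP sensed by d2/cryptate FRET pair, dual-wavelength read at 665 and 620 nm. Potency expressed as EC50 from nonlinear fitting.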

[3] = target: T3, GLP-1R (Homo sapiens, UniProt P43220); assay: In vitro cell activity, cAMP production in HEK293 cells expressing GLP-1R; conditions: HEK293-GLP-1R cells, cAMP; read-out: GLP-1R (EC50)
T3 construct: expressed in transfected cells; host or cells: HEK293 (HEK293-GLP-1R)
T3 sequence (P43220 24-463, species assumed): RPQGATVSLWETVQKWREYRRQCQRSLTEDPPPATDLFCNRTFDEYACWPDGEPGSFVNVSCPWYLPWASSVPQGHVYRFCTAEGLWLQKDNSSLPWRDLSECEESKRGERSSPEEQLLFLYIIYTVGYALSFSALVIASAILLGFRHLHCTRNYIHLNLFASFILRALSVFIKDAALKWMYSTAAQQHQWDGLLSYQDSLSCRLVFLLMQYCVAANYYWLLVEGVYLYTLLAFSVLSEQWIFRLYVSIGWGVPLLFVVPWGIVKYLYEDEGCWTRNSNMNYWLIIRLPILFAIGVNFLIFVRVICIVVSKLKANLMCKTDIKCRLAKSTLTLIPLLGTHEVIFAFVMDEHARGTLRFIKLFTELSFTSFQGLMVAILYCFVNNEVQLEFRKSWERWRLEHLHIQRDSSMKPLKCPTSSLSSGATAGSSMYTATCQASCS
Summary of the method: as §1

Compound	EC50 [1] [nM]	EC50 [2] [nM]	EC50 [3] [nM]
CC[C@H](C)[C@H](NC(=O)[C@H](CCCCN)NC(=O)[C@H](CC(=O)O)NC(=O)[C@H](CCCCNC(=O)COCCOCCNC(=O)CC[C@H](NC(=O)CCCCCCCCCCCCCCCCC(=O)O)C(=O)O)NC(=O)[C@H](CC(C)C)NC(=O)[C@@H](NC(=O)[C@H](CO)NC(=O)[C@H](Cc1ccc(O)cc1)NC(=O)[C@H](CC(=O)O)NC(=O)[C@H](CO)NC(=O)[C@@H](NC(=O)[C@](C)(Cc1ccccc1F)NC(=O)[C@@H](NC(=O)CNC(=O)[C@H](CCC(N)=O)NC(=O)C(C)(C)NC(=O)[C@@H](N)Cc1ccc(O)cc1)[C@@H](C)O)[C@@H](C)O)[C@@H](C)CC)C(=O)N[C@@H](C)C(=O)N[C@@H](CCC(N)=O)C(=O)N[C@@H](CCC(N)=O)C(=O)N[C@@H](C)C(=O)N[C@@H](Cc1ccccc1)C(=O)N[C@H](C(=O)N[C@@H](CCC(=O)O)C(=O)N[C@@H](Cc1ccc(O)cc1)C(=O)N[C@@H](CC(C)C)C(=O)N[C@@H](CC(C)C)C(=O)N[C@@H](C)C(=O)NCC(=O)NCC(=O)N1CCC[C@H]1C(=O)N[C@@H](CO)C(=O)N[C@@H](CO)C(=O)NCC(=O)N[C@@H](C)C(=O)N1CCC[C@H]1C(=O)N1CCC[C@H]1C(=O)N1CCC[C@H]1C(=O)N[C@@H](CO)C(N)=O)[C@@H](C)CC [HEC-PT122] (H-Y[Aib]QGT[αMePhe(2-F)]TSDYSILK([AEEA-γGlu-C18 diacid])DKIAQQAFIEYLLAGGPSSGAPPPS-NH2)	0.0276	0.162	0.0893
CC[C@H](C)[C@H](NC(=O)[C@H](Cc1ccccc1)NC(=O)[C@H](C)NC(=O)[C@H](CCCNC(=N)N)NC(=O)[C@H](CCC(N)=O)NC(=O)[C@H](CCCNC(=N)N)NC(=O)[C@H](CCCCNC(=O)COCCOCCNC(=O)CC[C@H](NC(=O)CCCCCCCCCCCCCCCCC(=O)O)C(=O)O)NC(=O)[C@H](CCC(=O)O)NC(=O)[C@H](CC(=O)O)NC(=O)[C@H](CC(C)C)NC(=O)[C@H](CC(C)C)NC(=O)[C@@H](NC(=O)[C@H](CO)NC(=O)[C@H](Cc1ccc(O)cc1)NC(=O)[C@H](CC(=O)O)NC(=O)[C@H](CO)NC(=O)[C@@H](NC(=O)[C@](C)(Cc1ccccc1F)NC(=O)[C@@H](NC(=O)CNC(=O)[C@H](CCC(N)=O)NC(=O)C(C)(C)NC(=O)[C@@H](N)Cc1ccc(O)cc1)[C@@H](C)O)[C@@H](C)O)[C@@H](C)CC)C(=O)N[C@@H](CCC(=O)O)C(=O)N[C@@H](Cc1ccc(O)cc1)C(=O)N[C@@H](CC(C)C)C(=O)N[C@@H](CC(C)C)C(=O)N[C@@H](CCC(=O)O)C(=O)NCC(=O)NCC(=O)N1CCC[C@H]1C(=O)N[C@@H](CO)C(=O)N[C@@H](CO)C(=O)NCC(=O)N[C@@H](C)C(=O)N1CCC[C@H]1C(=O)N1CCC[C@H]1C(=O)N1CCC[C@H]1C(=O)N[C@@H](CO)C(=O)O [HEC-PT124]	0.152	0.332	0.228
CC[C@H](C)[C@H](NC(=O)[C@H](Cc1ccccc1)NC(=O)[C@H](CCC(=O)O)NC(=O)[C@H](CCCCNC(=O)COCCOCCNC(=O)CC[C@H](NC(=O)CCCCCCCCCCCCCCCCC(=O)O)C(=O)O)NC(=O)[C@H](CCC(N)=O)NC(=O)[C@H](CCCNC(=N)N)NC(=O)[C@@H](NC(=O)[C@H](CCCNC(=N)N)NC(=O)[C@H](CC(=O)O)NC(=O)[C@H](CC(C)C)NC(=O)[C@H](CC(C)C)NC(=O)[C@@H](NC(=O)[C@H](CO)NC(=O)[C@H](Cc1ccc(O)cc1)NC(=O)[C@H](CC(=O)O)NC(=O)[C@H](CO)NC(=O)[C@@H](NC(=O)[C@](C)(Cc1ccccc1F)NC(=O)[C@@H](NC(=O)CNC(=O)[C@H](CCC(N)=O)NC(=O)C(C)(C)NC(=O)[C@@H](N)Cc1ccc(O)cc1)[C@@H](C)O)[C@@H](C)O)[C@@H](C)CC)[C@@H](C)CC)C(=O)N[C@@H](CCC(=O)O)C(=O)N[C@@H](Cc1c[nH]c2ccccc12)C(=O)N[C@@H](CC(C)C)C(=O)N[C@@H](CC(C)C)C(=O)N[C@@H](C)C(=O)NCC(=O)NCC(=O)N1CCC[C@H]1C(=O)N[C@@H](CO)C(=O)N[C@@H](CO)C(=O)NCC(=O)N[C@@H](C)C(=O)N1CCC[C@H]1C(=O)N1CCC[C@H]1C(=O)N1CCC[C@H]1C(=O)N[C@@H](CO)C(=O)O [HEC-PT125] (H-Y[Aib]QGT[αMePhe(2-F)]TSDYSILLDRIRQK([AEEA-γGlu-C18 diacid])EFIEWLLAGGPSSGAPPPS-OH)	0.0217	0.0269	0.123
CC[C@H](C)[C@H](NC(=O)[C@H](Cc1ccccc1)NC(=O)[C@H](C)NC(=O)[C@H](CCCCNC(=O)COCCOCCNC(=O)CC[C@H](NC(=O)CCCCCCCCCCCCCCCCC(=O)O)C(=O)O)NC(=O)[C@H](CCC(N)=O)NC(=O)[C@H](CCCNC(=N)N)NC(=O)[C@@H](NC(=O)[C@H](CCCNC(=N)N)NC(=O)[C@H](CC(=O)O)NC(=O)[C@H](CC(C)C)NC(=O)[C@H](CC(C)C)NC(=O)[C@@H](NC(=O)[C@H](CO)NC(=O)[C@H](Cc1ccc(O)cc1)NC(=O)[C@H](CC(=O)O)NC(=O)[C@H](CO)NC(=O)[C@@H](NC(=O)[C@](C)(Cc1ccccc1F)NC(=O)[C@@H](NC(=O)CNC(=O)[C@H](CCC(N)=O)NC(=O)C(C)(C)NC(=O)[C@@H](N)Cc1ccc(O)cc1)[C@@H](C)O)[C@@H](C)O)[C@@H](C)CC)[C@@H](C)CC)C(=O)N[C@@H](CCC(=O)O)C(=O)N[C@@H](Cc1ccc(O)cc1)C(=O)N[C@@H](CC(C)C)C(=O)N[C@@H](CC(C)C)C(=O)N[C@@H](CCC(=O)O)C(=O)NCC(=O)NCC(=O)N1CCC[C@H]1C(=O)N[C@@H](CO)C(=O)N[C@@H](CO)C(=O)NCC(=O)N[C@@H](C)C(=O)N1CCC[C@H]1C(=O)N1CCC[C@H]1C(=O)N1CCC[C@H]1C(=O)N[C@@H](CO)C(=O)O [HEC-PT126]	0.0589	0.0319	0.861
CC[C@H](C)[C@H](NC(=O)[C@H](Cc1ccccc1)NC(=O)[C@H](CCC(=O)O)NC(=O)[C@H](CCC(N)=O)NC(=O)[C@H](CCC(N)=O)NC(=O)[C@H](CCCNC(=N)N)NC(=O)[C@H](CCCCNC(=O)COCCOCCNC(=O)CC[C@H](NC(=O)CCCCCCCCCCCCCCCCCCC(=O)O)C(=O)O)NC(=O)[C@H](CCCNC(=N)N)NC(=O)[C@H](CC(=O)O)NC(=O)[C@H](CC(C)C)NC(=O)[C@H](CC(C)C)NC(=O)[C@@H](NC(=O)[C@H](CO)NC(=O)[C@H](Cc1ccc(O)cc1)NC(=O)[C@H](CC(=O)O)NC(=O)[C@H](CO)NC(=O)[C@@H](NC(=O)[C@](C)(Cc1ccccc1F)NC(=O)[C@@H](NC(=O)CNC(=O)[C@H](CCC(N)=O)NC(=O)C(C)(C)NC(=O)[C@@H](N)Cc1ccc(O)cc1)[C@@H](C)O)[C@@H](C)O)[C@@H](C)CC)C(=O)N[C@@H](CCC(=O)O)C(=O)N[C@@H](Cc1c[nH]c2ccccc12)C(=O)N[C@@H](CC(C)C)C(=O)N[C@@H](CC(C)C)C(=O)N[C@@H](C)C(=O)NCC(=O)NCC(=O)N1CCC[C@H]1C(=O)N[C@@H](CO)C(=O)N[C@@H](CO)C(=O)NCC(=O)N[C@@H](C)C(=O)N1CCC[C@H]1C(=O)N1CCC[C@H]1C(=O)N1CCC[C@H]1C(=O)N[C@@H](CO)C(=O)O [HEC-PT127]	0.0465	0.0707	0.127
